Consider 11 compounds from patent publication US20220220095A1, “N-((HETEROARYL)METHYL)-1-TOSYL-1H-PYRAZOLE-3-CARBOXAMIDE DERIVATIVES AS Kv3 POTASSIUM CHANNEL ACTIVATORS FOR TREATING NEUROLOGICAL AND [sequence] DISORDERS” (H. Lundbeck A/S, priority 2019, published 2022).

The target in this assay is T1, hKv3.1b (Homo sapiens, UniProt P48547).
T1 construct: expressed in transfected cells
T1 sequence (P48547 1-585 isoform P48547-2): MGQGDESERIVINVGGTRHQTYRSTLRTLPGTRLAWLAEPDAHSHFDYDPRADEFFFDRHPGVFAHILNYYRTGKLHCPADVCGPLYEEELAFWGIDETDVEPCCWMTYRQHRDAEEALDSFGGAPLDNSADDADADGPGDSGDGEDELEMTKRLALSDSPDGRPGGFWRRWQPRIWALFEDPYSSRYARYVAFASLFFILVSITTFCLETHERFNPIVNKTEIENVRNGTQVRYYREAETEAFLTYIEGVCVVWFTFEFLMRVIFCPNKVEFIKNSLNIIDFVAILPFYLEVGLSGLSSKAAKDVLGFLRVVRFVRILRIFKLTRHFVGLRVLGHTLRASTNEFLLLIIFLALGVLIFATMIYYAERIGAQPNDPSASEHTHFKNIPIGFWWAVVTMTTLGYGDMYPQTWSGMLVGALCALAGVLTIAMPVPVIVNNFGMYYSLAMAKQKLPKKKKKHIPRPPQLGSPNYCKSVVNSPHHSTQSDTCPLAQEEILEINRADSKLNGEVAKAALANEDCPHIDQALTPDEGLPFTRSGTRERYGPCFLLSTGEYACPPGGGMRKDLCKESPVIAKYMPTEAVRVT
The assay can be described thus: Automated whole-cell patch-clamp (QPatch-16x) on HEK-293 cells stably expressing hKv3.1b: shift of voltage threshold for channel activation. The format is cell-based. To be noted: HEK-293 hKv3.1b; for ECdelta5mV: concentration needed to shift the threshold 5 mV, read out from fitted concentration response curve; for Max Delta threshold: maximum absolute shift of activation threshold to more hyperpolarized potentials at the tested concentrations (0.37, 1.11, 3.33, 10, 30 μM).

As to `Cc1cnc(CNC(=O)c2ccn(S(=O)(=O)c3cccc(Cl)c3)n2)cn1` [Compound 75, 1-(3-chlorophenyl)sulfonyl-N-[(5-methylpyrazin-2-yl)methyl]pyrazole-3-carboxamide], the ECdelta5mV is on record as 3200 nM and the “Max Delta threshold” value amounted to 17 mV.

Regarding `Cc1cnc(CNC(=O)c2ccn(S(=O)(=O)c3ccc(Cl)cc3)n2)cn1` [Compound 76, 1-(4-chlorophenyl)sulfonyl-N-[(5-methylpyrazin-2-yl)methyl]pyrazole-3-carboxamide], the ECdelta5mV was 1500 nM and the “Max Delta threshold” value is 25 mV.

With `Cc1ccc(S(=O)(=O)n2ccc(C(=O)NCc3cnc(C)cn3)n2)c(C)c1` [Compound 77, 1-(2,4-dimethylphenyl)sulfonyl-N-[(5-methylpyrazin-2-yl)methyl]pyrazole-3-carboxamide], the ECdelta5mV is on record as 1100 nM and the “Max Delta threshold” value is reported as 29 mV.

As for `Cc1cnc(CNC(=O)c2ccn(S(=O)(=O)c3ccc(C(F)(F)F)cc3)n2)cn1` [Compound 78, N-[(5-methylpyrazin-2-yl)methyl]-1-[4-(trifluoromethyl)phenyl]sulfonyl-pyrazole-3-carboxamide], the ECdelta5mV is recorded as 3000 nM and the “Max Delta threshold” value is 23 mV.

For the compound `Cc1cnc(CNC(=O)c2ccn(S(=O)(=O)c3ccc(C4CC4)cc3)n2)cn1` [Compound 79, 1-(4-cyclopropylphenyl)sulfonyl-N-[(5-methylpyrazin-2-yl)methyl]pyrazole-3-carboxamide], the ECdelta5mV is recorded as 990 nM and the “Max Delta threshold” value stood at 32 mV.

As to `Cc1ccc(S(=O)(=O)n2ccc(C(=O)NCc3cnc(C)cn3)n2)c(F)c1` [Compound 80, 1-(2-fluoro-4-methyl-phenyl)sulfonyl-N-[(5-methylpyrazin-2-yl)methyl]pyrazole-3-carboxamide], the ECdelta5mV worked out at 1500 nM and the “Max Delta threshold” value came out at 31 mV.

As to `Cc1cnc(CNC(=O)c2ccn(S(=O)(=O)c3cc(C)c(F)c(C)c3)n2)cn1` [Compound 81, 1-(4-fluoro-3,5-dimethyl-phenyl)sulfonyl-N-[(5-methylpyrazin-2-yl)methyl]pyrazole-3-carboxamide], the ECdelta5mV is 3000 nM and the “Max Delta threshold” value stood at 17 mV.

`COc1ccc(S(=O)(=O)n2ccc(C(=O)NCc3cnc(C)cn3)n2)c(Cl)c1` [Compound 82, 1-(2-chloro-4-methoxy-phenyl)sulfonyl-N-[(5-methylpyrazin-2-yl)methyl]pyrazole-3-carboxamide]: the ECdelta5mV came to 1600 nM and the “Max Delta threshold” value was determined as 29 mV.

Regarding `Cc1cnc(CNC(=O)c2ccn(S(=O)(=O)c3c(C)cc(F)cc3C)n2)cn1` [Compound 83, 1-(4-fluoro-2,6-dimethyl-phenyl)sulfonyl-N-[(5-methylpyrazin-2-yl)methyl]pyrazole-3-carboxamide], the ECdelta5mV turned out to be 2700 nM and the “Max Delta threshold” value came out at 21 mV.

Regarding `Cc1cnc(CNC(=O)c2ccn(S(=O)(=O)c3ccccc3Cl)n2)cn1` [Compound 84, 1-(2-chlorophenyl)sulfonyl-N-[(5-methylpyrazin-2-yl)methyl]pyrazole-3-carboxamide], the ECdelta5mV amounted to 7700 nM and the “Max Delta threshold” value turned out to be 12 mV.

For the compound `COc1ccc(S(=O)(=O)n2ccc(C(=O)NCc3ncccc3F)n2)cc1` [Compound 86, N-[(3-fluoro-2-pyridyl)methyl]-1-(4-methoxyphenyl)sulfonyl-pyrazole-3-carboxamide], the ECdelta5mV was determined as 2400 nM and the “Max Delta threshold” value stood at 19 mV.
